Key:
tomato leaves = experiment: Hypersensitive response like symptoms on tomato leaves under sodium dithionite coated Whatman filter paper stickers; format: in vivo; conditions: tomato leaves (Pusa Rubi), stickers on adaxial surface for 3 hours, followed till 24 h
Protocol: To check whether sodium dithionite is able to induce plants innate immune response, square stickers from Whatman filter papers were coated with sodium dithionite under anoxic conditions (FIG. 4). These stickers were stacked on the adaxial surface of tomato leaves for 3 hours (FIG. 5). The variety of the tomato plant used for the purposes of present disclosure is Pusa Rubi accessed from Indian Agricultural Research Institute, New Delhi, India.

nitric oxide (NO) = format: in vivo, tomato
salicylic acid (SA) = experiment: Salicylic acid (SA) estimation in distal leaves; conditions: distal leaf samples, 6h post-sodium dithionite treatment, vs control plants
Protocol: Since salicylic acid (SA) is important in the induction of systemic acquired resistance in plants, the distal leaf samples were collected for SA estimation at 6h post-sodium dithionite treatment.

O=S([O-])S(=O)[O-].[Na+].[Na+] [sodium dithionite] was tested, and the “hypersensitive response like symptoms” value (tomato leaves) was “Hypersensitive response like symptoms started developing just after the treatment and was increased till 24 h”, the “NO levels (DAF-FM DA) after further treatment with avirulent Pseudomonas syringae” value (nitric oxide (NO); in vivo) was “Larger spots representing bursts of NO were observed” and the “NO production (DAF-FM DA)” value (nitric oxide (NO); tomato leaves treated with sodium dithionite strips alone) was “Increased microbursts of NO”. For the same compound, the “SA accumulation in distal leaves” value (salicylic acid (SA)) was “significant accumulation of SA”.
